Assay results as given in patent US5674876A, “.rho.-heteroatom-substituted phenols and uses thereof” (Research Development Foundation, priority 1995, dated 1997).

Tests used:
Format in all cases: cell-based
Set-up in all cases: key to Inhibition (%) of DNA synthesis: TOXIC (viability): TOXIC: the compound at this concentration killed the cells or greatly lowered their viability
[1] = tested on: MDA MB 435 (Metastic Human Breast Cancer Cell Line); experiment: Inhibition of DNA synthesis (3H-TdR uptake) / proliferation, MB-435; settings: for inhibition at 0.1 µg/mL / inhibition at 1 µg/mL / inhibition at 5 µg/mL / inhibition at 10 µg/mL / inhibition at 20 µg/mL: Homo sapiens, MDA-MB-435; for inhibition at 0.1 µg/mL: MB-435, 0.1 μg/mL; for inhibition at 0.1 µg/mL / inhibition at 1 µg/mL / inhibition at 5 µg/mL / Inhibition (%) of DNA synthesis: TOXIC (viability) / inhibition at 10 µg/mL / inhibition at 20 µg/mL: 48 h; for inhibition at 1 µg/mL: MB-435, 1 μg/mL
Protocol: (§1) Cells were cultured in the following media: 1) MDA MB 435 cells were cultured in Minimum Essential Media (MEM-HyClone, Logan, Utah) supplemented with 5% heat inactivated fetal bovine serum (HyClone), 2 mM glutamine (Sigma, St. Louis, Mo.), 1 mM sodium pyruvate (Sigma), 1X MEM Non-Essential Amino Acids (Sigma), 2X MEM Vitamins (Sigma), and 100 IU/mL penicillin/100 μg/mL streptomycin (HyClone); 2) MCF-7 McGuire cells were cultured in Minimum Essential Media (MEM-HyClone, Logan, Utah) supplemented with 5% heat inactivated fetal bovine serum (HyClone), 2 mM glutamine (Sigma, St. Louis, Mo.), and 100 IU/mL penicillin/100 μg/mL streptomycin (HyClone); 3) HL-60 cells were cultured in Iscoves Modified Dulbecco's Media (IMDM-HyClone, Logan, Utah) supplemented with 5% heat inactivated fetal bovine serum (HyClone), 2 mM glutamine (Sigma, St. Louis, Mo.), 1 mM sodium pyruvate (Sigma), 1X MEM Non-Essential Amino Acids (Sigma), 2X MEM Vitamins (Sigma), and 100 IU/mL penicillin/100 μg/mL streptomycin (HyClone); 2) MCF-7 McGuire cells were cultured in Minimum Essential Media (MEM-HyClone, Logan, Utah) supplemented with 5% heat inactivated fetal bovine serum (HyClone), 2 mM glutamine (Sigma, St. Louis, Mo.), and 100 IU/mL penicillin/100 μg/mL streptomycin (HyClone); 3) HL-60 cells were cultured in Iscoves Modified Dulbecco's Media (IMDM-HyClone, Logan, Utah) supplemented with 5% heat inactivated fetal bovine serum (HyClone), 2 mM glutamine (Sigma, St. Louis, Mo.), and 100 IU/mL penicillin/100 μg/mL streptomycin (HyClone).
(§2) All compounds were handled as if they were light sensitive. All compounds were initially dissolved in absolute ethanol and subsequently diluted to a final concentration of 0.5% ethanol with the appropriate medium.
(§3) For the bioassay, all cells were used at 2.5×10^5 /mL. Cells were treated with each of the compounds at concentrations of 20, 10, 5, 1, 0.1, and 0.01 μg/mL , and 200 μl of each treatment group were plated in quadruplicate in a 96 well culture plate (Corning, Corning N.Y.). Plates were done in duplicate, one plate to be used for viability testing and the other plate to examine ^3 H-TdR uptake (DNA synthesis).
(§4) Plates were cultured for 48 hours at 37° C., 5% CO2. Eight hours prior to the end of incubation, ^3 H-TdR was added to one of the duplicate plates and incubation continued for 8 hours. The cells were then harvested (trypsinization was required to harvest MDA MB 435 and MCF-7 McGuire). At the end of the incubation, the cells were removed from the wells (of the duplicate plate--no radioisotope added) and viability checked by the Trypan Blue Exclusion method. Percent viability and percent suppression of each treatment group were calculated.
(§5) With respect to the data shown in the Tables below, the data is arranged from greatest percent inhibition of DNA synthesis to lowest. […] "NT" refers to "Not Tested". The cells were cultured for 48 hours, pulsed 8 hours with tritiated thymidine, harvested and counted. MDA MB 435 is the abbreviation for the Metastic Human Breast Cancer Cell Line. MCF-7 McGuire is the abbreviation for the Estrogen Responsive Human Breast Cancer Cell Line and HL-60 is the Human Promyelocytic Leukemia Cell Line.

[2] = tested on: MCF-7 McGuire (Estrogen Responsive Human Breast Cancer Cell Line); experiment: Inhibition of DNA synthesis (3H-TdR uptake) / proliferation, MCF-7; settings: for inhibition at 0.1 µg/mL / inhibition at 1 µg/mL / inhibition at 5 µg/mL / inhibition at 10 µg/mL / inhibition at 20 µg/mL: Homo sapiens, MCF7; for inhibition at 0.1 µg/mL: MCF-7, 0.1 μg/mL; for inhibition at 1 µg/mL: MCF-7, 1 μg/mL
Protocol: as §1, §2, §3, §4, §5

[3] = tested on: HL-60 (Human Promyelocytic Leukemia Cell Line); experiment: Inhibition of DNA synthesis (3H-TdR uptake) / proliferation, HL-60; settings: for effect on HL-60 cells (in words): HL-60, no dose stated; for inhibition at 0.1 µg/mL / inhibition at 1 µg/mL / inhibition at 5 µg/mL / inhibition at 10 µg/mL / inhibition at 20 µg/mL: Homo sapiens; for inhibition at 0.1 µg/mL: HL-60, 0.1 μg/mL; for inhibition at 1 µg/mL: HL-60, 1 μg/mL; for inhibition at 5 µg/mL: HL-60, 5 μg/mL
Protocol: as §1, §2, §3, §4, §5

SMILES: CC(=O)Oc1c(C)c2c3c(c1C)CCCN3CCC2 [Compound 6, 9-Acetoxy-8,10-dimethyljulolidine]
- inhibition at 0.1 µg/mL [1]: 3%
- inhibition at 1 µg/mL [1]: 0%
- inhibition at 5 µg/mL ([1]; MB-435, 5 μg/mL): 80%
- inhibition of proliferation (in words) ([1]; MB-435, 5 μg/mL): significantly inhibited the proliferation
- Inhibition (%) of DNA synthesis: TOXIC (viability) ([1]; MB-435, 10 μg/mL): TOXIC
- Inhibition (%) of DNA synthesis: TOXIC (viability) ([1]; MB-435, 20 μg/mL): TOXIC
- inhibition of proliferation (in words) ([1]; MB-435, 10-20 μg/mL): significantly inhibited the proliferation
- inhibition at 0.1 µg/mL ([2]; 48 h): 0%
- inhibition at 1 µg/mL ([2]; 48 h): 10%
- inhibition at 5 µg/mL ([2]; MCF-7, 5 μg/mL, 48 h): 13%
- inhibition at 10 µg/mL ([2]; MCF-7, 10 μg/mL, 48 h): 37%
- inhibition of proliferation (in words) ([2]; MCF-7, 10 μg/mL): significantly inhibited the proliferation
- Inhibition (%) of DNA synthesis: TOXIC (viability) ([2]; MCF-7, 20 μg/mL, 48 h): TOXIC
- inhibition of proliferation (in words) ([2]; MCF-7, 10-20 μg/mL): significantly inhibited the proliferation
- inhibition of proliferation (in words) ([3]; HL-60, 10 μg/mL): significantly inhibited the proliferation
- Inhibition (%) of DNA synthesis: TOXIC (viability) ([3]; HL-60, 20 μg/mL, 48 h): TOXIC
- effect on HL-60 cells (in words) [3]: virtually no effect
- inhibition at 0.1 µg/mL ([3]; 48 h): 3%
- inhibition at 1 µg/mL ([3]; 48 h): 24%
- inhibition at 5 µg/mL ([3]; 48 h): 59%
- inhibition at 10 µg/mL ([3]; HL-60, 10 μg/mL, 48 h): 89%

SMILES: Cc1cc2c(c(C)c1O)C(C)CN2C(=O)C(C)C (stereo not drawn) [Compound 11b, N-Isobutyryl-5-hydroxy-3,4,6-trimethylindoline]
- inhibition at 0.1 µg/mL [1]: 0%
- inhibition at 1 µg/mL [1]: 21%
- inhibition at 5 µg/mL ([1]; MB-435, 5 μg/mL): 21%
- inhibition at 10 µg/mL ([1]; MB-435, 10 μg/mL): 22%
- inhibition at 20 µg/mL ([1]; MB-435, 20 μg/mL): 36%
- inhibition of proliferation (in words) ([1]; MB-435, 10 μg/mL): significantly inhibited the proliferation
- inhibition at 0.1 µg/mL ([2]; 48 h): 24%
- inhibition at 1 µg/mL ([2]; 48 h): 26%
- inhibition at 5 µg/mL ([2]; MCF-7, 5 μg/mL, 48 h): 47%
- inhibition at 10 µg/mL ([2]; MCF-7, 10 μg/mL, 48 h): 33%
- inhibition at 20 µg/mL ([2]; MCF-7, 20 μg/mL, 48 h): 53%
- inhibition of proliferation (in words) ([2]; MCF-7, 5 μg/mL): significantly inhibited the proliferation
- effect on HL-60 cells (in words) [3]: virtually no effect
- inhibition at 0.1 µg/mL ([3]; 48 h): 0%
- inhibition at 1 µg/mL ([3]; 48 h): 0%
- inhibition at 5 µg/mL ([3]; 48 h): 0%
- inhibition at 10 µg/mL ([3]; HL-60, 10 μg/mL, 48 h): 0%
- inhibition at 20 µg/mL ([3]; HL-60, 20 μg/mL, 48 h): 0%

SMILES: Cc1cc2c(c(C)c1O)C(C)CN2C(=O)C(C)(C)C (stereo not drawn) [Compound 11c, N-Pivaloyl-5-hydroxy-3,4,6-trimethylindoline]
- inhibition at 0.1 µg/mL [1]: 13%
- inhibition at 1 µg/mL [1]: 12%
- inhibition at 5 µg/mL ([1]; MB-435, 5 μg/mL): 20%
- inhibition at 10 µg/mL ([1]; MB-435, 10 μg/mL): 12%
- inhibition at 20 µg/mL ([1]; MB-435, 20 μg/mL): 31%
- inhibition at 0.1 µg/mL ([2]; 48 h): 18%
- inhibition at 1 µg/mL ([2]; 48 h): 1%
- inhibition at 5 µg/mL ([2]; MCF-7, 5 μg/mL, 48 h): 9%
- inhibition at 10 µg/mL ([2]; MCF-7, 10 μg/mL, 48 h): 31%
- inhibition at 20 µg/mL ([2]; MCF-7, 20 μg/mL, 48 h): 43%
- inhibition at 0.1 µg/mL ([3]; 48 h): 0%
- inhibition at 1 µg/mL ([3]; 48 h): 0%
- inhibition at 5 µg/mL ([3]; 48 h): 0%
- inhibition at 10 µg/mL ([3]; HL-60, 10 μg/mL, 48 h): 0%
- inhibition at 20 µg/mL ([3]; HL-60, 20 μg/mL, 48 h): 0%

SMILES: CC(=O)Oc1c(C)cc2c(c1C)C(C)CN2C(=O)C(C)C (stereo not drawn) [Compound 12b, N-Isobutyryl-5-acetoxy-3,4,6-trimethylindoline]
- inhibition at 0.1 µg/mL [1]: 1%
- inhibition at 1 µg/mL [1]: 19%
- inhibition at 5 µg/mL ([1]; MB-435, 5 μg/mL): 32%
- inhibition at 10 µg/mL ([1]; MB-435, 10 μg/mL): 24%
- inhibition at 20 µg/mL ([1]; MB-435, 20 μg/mL): 41%
- inhibition of proliferation (in words) ([1]; MB-435, 5-20 μg/mL): significantly inhibited the proliferation
- inhibition at 0.1 µg/mL ([2]; 48 h): 20%
- inhibition at 1 µg/mL ([2]; 48 h): 47%
- inhibition at 5 µg/mL ([2]; MCF-7, 5 μg/mL, 48 h): 38%
- inhibition at 10 µg/mL ([2]; MCF-7, 10 μg/mL, 48 h): 58%
- inhibition at 20 µg/mL ([2]; MCF-7, 20 μg/mL, 48 h): 70%
- inhibition of proliferation (in words) ([2]; MCF-7, 5-20 μg/mL): significantly inhibited the proliferation
- inhibition of proliferation (in words) ([3]; HL-60, 5-20 μg/mL): significantly inhibited the proliferation
- inhibition at 0.1 µg/mL ([3]; 48 h): 0%
- inhibition at 1 µg/mL ([3]; 48 h): 2%
- inhibition at 5 µg/mL ([3]; 48 h): 32%
- inhibition at 10 µg/mL ([3]; HL-60, 10 μg/mL, 48 h): 67%
- inhibition at 20 µg/mL ([3]; HL-60, 20 μg/mL, 48 h): 46%
